Consider 15 compounds from patent US5185360A, “Dihydroindenoindole compounds and methods for using the same” (University of Bath, priority 1989, dated 1993).

Structures are written as SMILES.

Experiment [1] relates to lipid peroxidation of soy bean phospholipids. The experiment can be described thus: Ascorbate/Fe^2+-dependent lipid peroxidation. The conditions noted are these: inhibition of ascorbate/Fe^2+-dependent lipid peroxidation by 50%; pH 7.4, room temperature, 30 min. Format: biochemical. An excerpt:
(§1) The most important feature of the compounds of the invention is their efficacy as free-radical scavengers or antioxidants. An assay system measuring the concentration of the compounds of formulas (IA) and (IB) required to inhibit lipid peroxidation by 50% (IC50) was used. Other assays described below are the red blood cell fragility test used for measuring membrane stabilisation by indenoindoles. (Table 2), and protection by indenoindoles against cytotoxicity of N-methyl-N'-nitro-N-nitrosoguanidine (MNNG) in rat hepatocytes (Table 3). MNNG is a highly cytotoxic agent, the mechanism of action of which may involve a radical-mediated membrane destabilization.
For the ferrous/ascorbate lipid peroxidation system, 6.25 ml of 0.1 M potassium phosphate buffer (KPi), pH 7.4, was added to 12.5 mg dried soy bean phospholipids. After flushing with argon for 2 min, the suspension was sealed with five layers of Parafilm and sonicated until the suspension was translucent. The final reaction mixture was composed of 200 μg/ml phospholipid, 10 μM FeNH4 (SO4)2 or Fe(NH4)2 (SO4)2, and 100 μM ascorbic acid in 0.1 M KPi (pH 7.4), and the antioxidant to be tested in acetone or DMSO. The volume of vehicle never exceeded 1% of the total volume. The reaction was initiated by the addition of ascorbic acid plus iron. The reaction was continued at room temperature in a shaking water bath for 30 min and then stopped by the addition of […] of 0.5 M butylated hydroxytoluene in DMSO. The above procedure and the subsequent determination of 2-thibarbituric acid-reactive material is described in: Shertzer, H. G. et al, Biochem. Pharmacol. 37, 333 (1988).

Experiment [2] has as its system red blood cells. The experiment can be described thus: Membrane stabilization in red blood cells (red blood cell fragility test). To be noted: linear regression slope: percentage protection against osmolysis per μM protecting agent; pH 7.4. The experiment is classed as cell-based, rat.
From the text: as §1
The membrane stabilization effect of indenoindoles was assayed by the red blood cell fragility test. Rats were anesthetized with 65 mg phenobarbital per kg body weight by i.p. injection. Blood samples were removed into a heparinized syringe from the left ventricle and diluted 20-fold with buffer containing 140 mM NaCl, 10 mM sodium citrate and 5 mM glucose (pH 7.4) at 0° C. Diluted blood was kept on ice. A 0.75 ml aliquot of blood was added to a 4 ml cuvette containing 10 μl of the antioxidant dissolved in DMSO vehicle. After I min of gentle swirling, 0.75 ml of 0.9 NaCl or H2 O were added to the cuvette by forceful pipetting, and the absorbance at 656 nm was recorded with a Beckman DU-70 spectrophotometer. When H2 O was added in the absence of a stabilizing agent, absorbance decreased within 15 sec to 0.8. Addition of NaCl instead of H2 O gave a time-independent absorbance of 2.2. In the presence of increasing concentrations of stabilizing chemicals, the absorbance decrease observed after the addition of water was diminished. The % protection from osmolysis was obtained from the equation [[(2.2-0.8)- A]/(2.2-0.8)]×100%, where A=2.2 minus the absorbance decrease when water is added in the presence of a known concentration of chemical. The % protection is then plotted against several concentrations of the chemical being treated. The red blood cell fragility protective index value (RBC-PIV) is the linear regression slope of this plot, expressed as the percentage protection against osmolysis per μM protecting agent.

Experiment [3] concerns rat hepatocytes. The experiment can be described thus: Protection against cytotoxic effects of MNNG in hepatocytes. Format: cell-based, rat (male Sprague-Dawley). To be noted: Hepatocyte, concentration of compound required to extend by 1 hour the time needed for MNNG to kill 50% of the viable cells, 0.5 mM MNNG.
From the text: as §1
The protective effects of indenoindoles on MNNG-induced cytotoxicity was assayed with rat hepatocytes. Hepatocytes were prepared from male Sprague-Dawley rats by collagenase treatment as originally described by Zahlten and Stratman (Zahlten, R. N. and Stratman, F. W., Arch. Biochem. Biophys. 163, 600 (1988)), as modified by Reitman et al. (Reitman, F. A. Shertzer, H. G. and Berger, M. L., Biochem. Pharmacol. 37, 3183 (1988)). In order to improve viability, cells were centrifuged through 0.508g/ml Percoll (Pharmacia AB, Uppsala, Sweden) in 137 mM NaCl, 8.1 mM Na2 HPO4 and 1.5 mM KH2 PO4 (pH 7.4). Putative protecting agents were added to the cells as solutions in DMSO, with the final concentration of DMSO never exceeding 5 μl/ml of cell suspension. MNNG was added to a concentration of 0.5 mM as a solution in ethanol, giving a final concentration of ethanol of 1%; ethanol alone was by itself without effect. Viability was determined as the percentage of cells that excluded 0.2% trypan blue. Values are the concentration of compound required to extend by 1 hour, the time needed for MNNG to kill 50% of the viable cells.

Experiment [4] deals with mouse liver microsomes. The conditions noted are these: NADPH-fortified mouse liver microsomes, initiated with CCl4; FASEB J. 2, A 407 (1988); cited from earlier work. (Microsomes from liver hold many membrane-bound enzymes, among them those of drug oxidation.)
Experiment [5] concerns lipid peroxidation. To be noted: Fd Chem. Toxicol. 26, 517 (1988); cited from earlier work.

On to `CCN(CC)c1ccc2c(c1)Cc1c-2[nH]c2ccccc12` [2-Diethylamino-DHII, 5,10-Dihydro-2-(N,N-diethylamino)indeno[1,2-b]indole], for which, in experiment [1], the pIC50 (in general, the negative decadic logarithm of the IC50, by convention in mol/L) turned out to be 7.4. The same measure, in the same setting: as for `CCNc1ccc2c(c1)Cc1c-2[nH]c2ccccc12` [2-Ethylamino-DHII, 5,10-Dihydro-2-(N-ethylamino)indeno[1,2-b] indole], the figure is 7.9.

The compound `Cn1c2c(c3ccccc31)Cc1ccccc1-2` [5-Methyl-DHII, 5,10-Dihydro-5-methylindeno[1,2-b]indole] yielded a pIC50 in experiment [1] of 5.1. In addition, the “RBC-PIV (red blood cell fragility protective index value)” value in experiment [2] is 0.74 %/μM. Also, the IC50 (commonly the concentration needed to halve the response being measured) in experiment [3] stood at 6 µM. `Cc1cc(C)c2[nH]c3c(c2c1)Cc1ccccc1-3` [6,8-Dimethyl-DHII, 5,10-Dihydro-6,8-dimethylindeno[1,2-b]indole]: in experiment [1], the pIC50 was found to be 6.1. Same read-out and setting: as for `Clc1cccc2c3c([nH]c12)-c1ccccc1C3` [6-Chloro-DHII, 5,10-Dihydro-6-chloroindeno[1,2-b]indole], the figure is 5.2. Same read-out and setting: as for `Fc1ccc2[nH]c3c(c2c1)Cc1ccccc1-3` [8-Fluoro-DHII, 5,10-Dihydro-8-fluoroindeno[1,2-b]indole], the figure is 5.6; as for `CC(C)c1ccc2[nH]c3c(c2c1)Cc1ccccc1-3` [8-Isopropyl-DHII, 5,10-Dihydro-8-iso-propylindeno[1,2-b]indole], 5.6. The same measure, in the same setting: as for `COc1ccc2[nH]c3c(c2c1)Cc1ccccc1-3` [8-Methoxy-DHII, 5,10-Dihydro-8-methoxyindeno[1,2-b]indole], the figure is 6.2; as for `Cc1ccc2[nH]c3c(c2c1)Cc1ccccc1-3` [8-Methyl-DHII, 5,10-Dihydro-8-methylindeno[1,2-b]indole], 5.7; as for `COc1ccc2[nH]c3c(c2c1)-c1ccccc1C3` [9-Methoxy-iso-DHII, 5,6-Dihydro-9-methoxyindeno[2,1-b]indole], 6.4. `CC1(C)c2ccccc2-c2[nH]c3ccccc3c21` [10,10-Dimethyl-DHII, 5,10-Dihydro-10,10-dimethylindeno[1,2-b]indole]: in experiment [1], the pIC50 is 6.1. Also, the “RBC-PIV (red blood cell fragility protective index value)” value in experiment [2] was found to be 0.48 %/μM. The compound `CC1c2ccccc2-c2[nH]c3ccccc3c21` (centres unmarked) [10-Methyl-DHII, 5,10-Dihydro-10-methylindeno[1,2-b]indole] gave a pIC50 in experiment [1] of 5.7.

In experiment [1], `c1ccc2c(c1)Cc1c-2[nH]c2ccccc12` [DHII, 5,10-Dihydroindeno[1,2-b]indole] showed a pIC50 of 5.8. In addition, the “RBC-PIV (red blood cell fragility protective index value)” value in experiment [2] was determined as 0.49 %/μM. Also, in experiment [3], the IC50 stood at 3.1 µM. Besides, the figures for the “inhibition of lipid peroxidation” value in experiment [4] and in experiment [5] were “inhibiting lipid peroxidation” and “potent inhibitor of lipid peroxidation”, respectively. `c1ccc2c(c1)Cc1[nH]c3ccccc3c1-2` [iso-DHII, 5,6-Dihydroindeno[2,1-b]indole] registered a pIC50 in experiment [1] of 5.8. The “RBC-PIV (red blood cell fragility protective index value)” value in experiment [2] was 0.50 %/μM. Further, the IC50 in experiment [3] came to 3.4 µM. In addition, the “inhibition of lipid peroxidation” value in experiment [4] is “inhibiting lipid peroxidation”. In experiment [1], `Cc1c(C)c2c(c(C)c1O)CCC(C)(CCCC(C)CCCC(C)CCCC(C)C)O2` (stereo not drawn) [α-Tocopherol (Vitamin E), α-Tocopherol, reference compound] displayed a pIC50 of 5.0. Also, the “RBC-PIV (red blood cell fragility protective index value)” value in experiment [2] is recorded as 0.10 %/μM.
